Assay results reported in ChEMBL document CHEMBL5143642, “Thiosemicarbazone derivatives: Evaluation as cruzipain inhibitors and molecular modeling study of complexes with cruzain” (Bioorg Med Chem, 2022).

target: Cruzipain (Trypanosoma cruzi, UniProt P25779); test: Inhibition of epimastigote form of Trypanosoma cruzi Tulahuen 2 cruzain assessed as reduction in 7-amino-4-methylcoumarin release incubated for 20 mins folllowed by Z-FR-AMC substrate addition and measured up to 45 mins by fluorometric assay
Sequence (P25779 whole entry): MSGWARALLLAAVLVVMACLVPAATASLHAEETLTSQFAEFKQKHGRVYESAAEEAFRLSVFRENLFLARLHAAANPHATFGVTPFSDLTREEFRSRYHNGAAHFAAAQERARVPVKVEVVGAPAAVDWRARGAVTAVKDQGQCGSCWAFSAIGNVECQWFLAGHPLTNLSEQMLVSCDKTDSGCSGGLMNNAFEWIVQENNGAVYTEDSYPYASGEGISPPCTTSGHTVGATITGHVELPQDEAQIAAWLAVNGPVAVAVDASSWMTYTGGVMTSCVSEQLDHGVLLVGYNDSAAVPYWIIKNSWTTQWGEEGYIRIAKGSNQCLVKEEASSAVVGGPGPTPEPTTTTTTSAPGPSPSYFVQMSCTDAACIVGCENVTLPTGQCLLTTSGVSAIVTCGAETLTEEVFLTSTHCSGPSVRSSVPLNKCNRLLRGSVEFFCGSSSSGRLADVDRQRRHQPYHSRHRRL

Going from `NC(=S)N/N=C/c1cccc(Cl)c1` to `C/C(=N\NC(N)=S)c1cccc(Cl)c1`, the IC50 falls from 105 µM to 29.9 µM (3.5-fold).

First: CC/C(=N\NC(N)=S)c1cccc([N+](=O)[O-])c1
Second: C/C(=N\NC(N)=S)c1ccc([N+](=O)[O-])cc1
The IC50 of the first is 10-fold lower: 0.753 µM for the first, 7.6 µM for the second. The first is the more potent here.

First: N/C(S)=N/N=C/c1ccc(Cl)c(Cl)c1
Second: C/C(=N\N=C(\N)S)c1ccc(Cl)c(Cl)c1
The IC50 of the first is 1.8-fold lower: 0.0816 µM for the first, 0.147 µM for the second. The first is the more potent here.

Going from `CC/C(=N\N=C(\N)S)c1cccc(Cl)c1` to `CC/C(=N\N=C(\N)S)c1ccc(Cl)c(Cl)c1`, the IC50 falls from 23.2 µM to 0.0695 µM (330-fold).

`COc1cccc(/C(C)=N/N=C(/N)S)c1` gave an IC50 of 1470 µM.
